Results taken from ChEMBL document CHEMBL1201862, “PubChem BioAssay data set” (2004).
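Where inhibition never reached the appropriate level, the endpoint shown equals the highest concentration tested. Otherwise, values were interpolated linearly from a five-concentration, 48-hour dose response in 96-well plates. GI50: concentration for 50% inhibition of growth.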 The source made the active and inactive calls. Cut-off read from the data, not from the text of the source: active = GI50 up to about 1.1 µM and inactive = higher.

Assays:
Test in all cases: growth of human tumour cells (NCI), 48 h
A549 = test system: A549
ACHN = test system: ACHN
COLO 205 = test system: COLO 205
DMS-273 = test system: DMS-273
EKVX = test system: EKVX
HCT-116 = test system: HCT-116
HL-60 = test system: HL-60
HOP-62 = test system: HOP-62
LXFL 529 = test system: LXFL 529
M14 = test system: M14
M19-MEL = test system: M19-MEL
OVCAR-4 = test system: OVCAR-4
OVCAR-5 = test system: OVCAR-5
RXF 393 = test system: RXF 393
SF-268 = test system: SF-268
SK-MEL-2 = test system: SK-MEL-2
SK-MEL-5 = test system: SK-MEL-5
SN12C = test system: SN12C
SR = test system: SR
UO-31 = test system: UO-31

Measured: GI50

Nc1cc(-c2ccccc2)nn1-c1nsc2ccccc12
inactive: A549 > 100 µM | ACHN > 100 µM | COLO 205 > 100 µM | DMS-273 80.7 µM | EKVX 47.8 µM | HCT-116 73.3 µM | HL-60 61.8 µM | HOP-62 36.3 µM | LXFL 529 > 100 µM | M14 > 100 µM | M19-MEL > 100 µM | OVCAR-4 > 100 µM | OVCAR-5 > 100 µM | RXF 393 14.4 µM | SF-268 58.9 µM | SK-MEL-2 > 100 µM | SK-MEL-5 > 100 µM | SN12C 99.8 µM | SR 53.2 µM | UO-31 > 100 µM

CCC(=C(C#N)C#N)c1cc(OC)c(OC)c(OC)c1
inactive: A549 > 100 µM | ACHN > 100 µM | COLO 205 > 100 µM | DMS-273 > 100 µM | EKVX > 100 µM | HCT-116 > 100 µM | HL-60 22.1 µM | HOP-62 > 100 µM | LXFL 529 > 100 µM | M14 > 100 µM | M19-MEL > 100 µM | OVCAR-4 > 100 µM | OVCAR-5 > 100 µM | RXF 393 > 100 µM | SF-268 > 100 µM | SK-MEL-2 > 100 µM | SK-MEL-5 > 100 µM | SN12C > 100 µM | SR > 100 µM | UO-31 > 100 µM

CC1(C)Cc2c(C#N)c(N)c3c(c2CO1)C(=O)OC3=O
inactive: A549 > 100 µM | ACHN > 100 µM | COLO 205 > 100 µM | DMS-273 > 100 µM | EKVX > 100 µM | HCT-116 > 100 µM | HL-60 > 100 µM | HOP-62 > 100 µM | LXFL 529 > 100 µM | M14 > 100 µM | M19-MEL > 100 µM | OVCAR-4 > 100 µM | OVCAR-5 > 100 µM | RXF 393 > 100 µM | SF-268 > 100 µM | SK-MEL-2 > 100 µM | SK-MEL-5 > 100 µM | SN12C > 100 µM | SR > 100 µM | UO-31 > 100 µM
